Measurements published in patent US11911361B2, “Stable cannabinoid formulations” (priority 2014, dated 2024).

How the values were obtained:
U87 cells = assay: Orthotopic mouse model of glioblastoma multiforme, U87 cells
U251 cells = assay: Orthotopic mouse model of glioblastoma multiforme, U251 cells; assay type: in vivo, female athymic nu/nu mice
Protocol: All mice were injected intraperitoneally.
Survival between groups was compared using a Kaplan-Meier analysis and long-rank Mantel-Cox test or The Gehan-Breslow-Wilcoxon test. P values <0.05 defined statistical significance.

[1] = test system: psychomotor seizure induced by 6 Hz stimulation; assay: Minimal clonic seizure (6 Hz) psychomotor seizure test; settings: intraperitoneal; for 6 HZ N/F (animals protected/tested): Anticonvulsant Screening, mice; for 6 Hz N/F (animals protected/tested) / 6 Hz N/F: CF1 mice; for ED50: Mus musculus, ip; for 6 Hz N/F: Time to Peak Effect (Table 54)
[2] = test system: maximal electroshock-induced seizures; assay: Maximal electroshock test (MES), rats; settings: Anticonvulsant Screening
[3] = Minimal motor impairment (rotorod) toxicity test (TOX), mice; settings: in vivo
[4] = test system: vincristine-induced peripheral neuropathy; assay: Vincristine induced neuropathic pain study; assay type: in vivo; settings: CBD 15 minutes prior to each vincristine 0.1 mg/kg injection
Protocol: A study was designed to test the efficacy of CBD in preventing oxaliplatin- or vincristine-induced peripheral neuropathy. Two doses of CBD and vehicle were tested against each of these first line chemotherapeutic agents. Oxaliplatin was administered once at a dose of 6 mg/kg. CBD was administered 15 minutes prior to the single oxaliplatin injection. Vincristine was administered once daily for 7 days at a dose of 0.1 mg/kg. CBD was administered 15 minutes prior to each vincristine injection. For each treatment group the final sample size was 8 animals.

With `C=C(C)[C@@H]1CCC(C)=C[C@H]1c1c(O)cc(CCCCC)cc1O` [cannabidiol, (−)-trans-2-p-mentha-1,8-dien-3-yl-5-pentylresorcinol] the “glioblastoma multiforme progression (in words)” value (U87 cells; 15 mg/kg alone, intraperitoneal) was “did not inhibit glioblastoma multiforme progression”, the “effect on antitumor activity of temozolomide (in words)” value (U87 cells; 15 mg/kg with temozolomide 2 mg/kg, intraperitoneal) was “enhanced the antitumor activity of suboptimal doses of temozolomide leading to a significant increase in survival” and the “full regression of tumors” value (U87 cells; mouse, in vivo) was 20%. The “effect on antitumor activity of temozolomide (in words)” value (U251 cells; 15 mg/kg cannabidiol with temozolomide 1.5 mg/kg) was “enhanced the antitumor activity of temozolomide”, the “survival (in words)” value (U251 cells; vehicle outlier included) was “did not increase survival” and the “6 HZ N/F (animals protected/tested)” value ([1]; 10 mg/kg, 0.5 h, ethanol:polyethoxylated castor oil:PBS) was 0/4. The “6 HZ N/F (animals protected/tested)” value ([1]; 10 mg/kg, 0.5 h, methylcellulose) was 0/4, the “6 HZ N/F (animals protected/tested)” value ([1]; 10 mg/kg, 1.0 h, ethanol:polyethoxylated castor oil:PBS) was 0/4 and the “6 HZ N/F (animals protected/tested)” value ([1]; 10 mg/kg, 1.0 h, methylcellulose) was 0/4. For the same compound, the “6 HZ N/F (animals protected/tested)” value ([1]; 10 mg/kg, 2.0 h, ethanol:polyethoxylated castor oil:PBS) was 0/4, the “6 HZ N/F (animals protected/tested)” value ([1]; 10 mg/kg, 2.0 h, methylcellulose) was 0/4 and the “6 HZ N/F (animals protected/tested)” value ([1]; 30 mg/kg, 0.5 h, ethanol:polyethoxylated castor oil:PBS) was 0/4. For the same compound, the “6 HZ N/F (animals protected/tested)” value ([1]; 30 mg/kg, 0.5 h, methylcellulose) was 0/4, the “6 HZ N/F (animals protected/tested)” value ([1]; 30 mg/kg, 1.0 h, ethanol:polyethoxylated castor oil:PBS) was 0/4 and the “6 HZ N/F (animals protected/tested)” value ([1]; 30 mg/kg, 1.0 h, methylcellulose) was 0/4. For the same compound, the “6 HZ N/F (animals protected/tested)” value ([1]; 30 mg/kg, 2.0 h, ethanol:polyethoxylated castor oil:PBS) was 0/4, the “6 HZ N/F (animals protected/tested)” value ([1]; 30 mg/kg, 2.0 h, methylcellulose) was 0/4 and the “6 HZ N/F (animals protected/tested)” value ([1]; 100 mg/kg, 0.5 h, ethanol:polyethoxylated castor oil:PBS) was 2/4. For the same compound, the “6 HZ N/F (animals protected/tested)” value ([1]; 100 mg/kg, 0.5 h, methylcellulose) was 1/4, the “6 HZ N/F (animals protected/tested)” value ([1]; 100 mg/kg, 1.0 h, ethanol:polyethoxylated castor oil:PBS) was 0/4 and the “6 HZ N/F (animals protected/tested)” value ([1]; 100 mg/kg, 1.0 h, methylcellulose) was 0/4. For the same compound, the “6 HZ N/F (animals protected/tested)” value ([1]; 100 mg/kg, 2.0 h, ethanol:polyethoxylated castor oil:PBS) was 0/4, the “6 HZ N/F (animals protected/tested)” value ([1]; 100 mg/kg, 2.0 h, methylcellulose) was 0/4 and the “6 Hz N/F (animals protected/tested)” value ([1]; ED50 Biological Response (Table 53), 30 mg/kg, 0.5 h, methylcellulose) was 0/8. The “6 Hz N/F (animals protected/tested)” value ([1]; ED50 Biological Response (Table 53), 65 mg/kg, 0.5 h, methylcellulose) was 5/8, the “6 Hz N/F (animals protected/tested)” value ([1]; ED50 Biological Response (Table 53), 130 mg/kg, 0.5 h, methylcellulose) was 5/8 and the “6 Hz N/F (animals protected/tested)” value ([1]; ED50 Biological Response (Table 53), 160 mg/kg, 0.5 h, methylcellulose) was 8/16. The “6 Hz N/F (animals protected/tested)” value ([1]; ED50 Biological Response (Table 53), 190 mg/kg, 0.5 h, methylcellulose) was 7/8, the “6 Hz N/F (animals protected/tested)” value ([1]; ED50 Biological Response (Table 55), 50 mg/kg, 0.5 h, ethanol:polyethoxylated castor oil:PBS) was 1/8 and the “6 Hz N/F (animals protected/tested)” value ([1]; ED50 Biological Response (Table 55), 100 mg/kg, 0.5 h, ethanol:polyethoxylated castor oil:PBS) was 1/8. The “6 Hz N/F (animals protected/tested)” value ([1]; ED50 Biological Response (Table 55), 130 mg/kg, 0.5 h, ethanol:polyethoxylated castor oil:PBS) was 4/8, the “6 Hz N/F (animals protected/tested)” value ([1]; ED50 Biological Response (Table 55), 170 mg/kg, 0.5 h, ethanol:polyethoxylated castor oil:PBS) was 6/8 and the “6 Hz N/F (animals protected/tested)” value ([1]; ED50 Biological Response (Table 55), 200 mg/kg, 0.5 h, ethanol:polyethoxylated castor oil:PBS) was 8/8. The ED50 ([1]; 1:1:18 ethanol:polyethoxylated castor oil:PBS solvent) was 122 mg/kg, the ED50 ([1]; methylcellulose solvent) was 104 mg/kg and the “6 Hz N/F” value ([1]; 300 mg/kg, 0.25 h, methylcellulose) was 1/8. The “6 Hz N/F” value ([1]; 300 mg/kg, 0.5 h, methylcellulose) was 0/8, the “6 Hz N/F” value ([1]; 300 mg/kg, 1 h, methylcellulose) was 0/8 and the “6 Hz N/F” value ([1]; 300 mg/kg, 2 h, methylcellulose) was 0/8. For the same compound, the “6 Hz N/F” value ([1]; 300 mg/kg, 4 h, methylcellulose) was 0/8, the “6 Hz N/F” value ([1]; 300 mg/kg, 6 h, methylcellulose) was 0/8 and the “6 Hz N/F” value ([1]; 300 mg/kg, 24 h, methylcellulose) was 0/8. For the same compound, the “6 Hz N/F” value ([1]; 500 mg/kg, 0.25 h, methylcellulose) was 1/8, the “6 Hz N/F” value ([1]; 500 mg/kg, 0.5 h, methylcellulose) was 0/8 and the “6 Hz N/F” value ([1]; 500 mg/kg, 1 h, methylcellulose) was 0/8. The “6 Hz N/F” value ([1]; 500 mg/kg, 2 h, methylcellulose) was 0/8, the “6 Hz N/F” value ([1]; 500 mg/kg, 4 h, methylcellulose) was 0/8 and the “6 Hz N/F” value ([1]; 500 mg/kg, 6 h, methylcellulose) was 0/8. For the same compound, the “6 Hz N/F” value ([1]; 500 mg/kg, 24 h, methylcellulose) was 2/8, the “MES N/F (animals protected/tested)” value ([2]; dose 30, 1.0 h, ethanol:polyethoxylated castor oil:PBS) was 0/4 and the “MES N/F (animals protected/tested)” value ([2]; dose 30, 1.0 h, methylcellulose) was 0/4. For the same compound, the “MES N/F (animals protected/tested)” value ([2]; dose 30, 2.0 h, ethanol:polyethoxylated castor oil:PBS) was 0/4, the “MES N/F (animals protected/tested)” value ([2]; dose 30, 2.0 h, methylcellulose) was 0/4 and the “MES N/F (animals protected/tested)” value ([2]; dose 30, 4.0 h, ethanol:polyethoxylated castor oil:PBS) was 0/4. The “MES N/F (animals protected/tested)” value ([2]; dose 30, 4.0 h, methylcellulose) was 0/4, the “MES N/F (animals protected/tested)” value ([2]; dose 100, 1.0 h, ethanol:polyethoxylated castor oil:PBS) was 1/4 and the “MES N/F (animals protected/tested)” value ([2]; dose 100, 1.0 h, methylcellulose) was 0/4. For the same compound, the “MES N/F (animals protected/tested)” value ([2]; dose 100, 2.0 h, ethanol:polyethoxylated castor oil:PBS) was 0/4, the “MES N/F (animals protected/tested)” value ([2]; dose 100, 2.0 h, methylcellulose) was 0/4 and the “MES N/F (animals protected/tested)” value ([2]; dose 100, 4.0 h, ethanol:polyethoxylated castor oil:PBS) was 0/4. For the same compound, the “MES N/F (animals protected/tested)” value ([2]; dose 100, 4.0 h, methylcellulose) was 0/4, the TD50 at 2 h ([3]; CF1, mouse, TD50, Example 12, 1:1:18 ethanol:polyethoxylated castor oil:PBS solvent) was 262 mg/kg and the TD50 at 0.5 hours ([3]; CF1, mouse, TD50, Example 12, methylcellulose solvent, 0.5 hours post administration) was > 500 mg/kg. The TD50 at 2 h ([3]; mouse, TD50, Example 13, 1:1:18 ethanol:polyethoxlated castor oil:PBS solvent) was 267 mg/kg, the TD50 at 2 h ([3]; mouse, TD50, Example 13, methylcellulose solvent) was > 500 mg/kg and the “effect on vincristine-induced mechanical sensitivity (in words)” value [4] was “no main effect of treatment”.
